Data on 27 compounds can be found in US8163771B2, “11 β-HSD1 modulators” (Exelixis, Inc., priority 2008, dated 2012).

For this experiment, the target named is T1, recombinant human 11 β-HSD1 (Homo sapiens, UniProt P28845).
T1 construct: made in house; host or cells: E. coli
Kind of experiment: 11 β-HSD1 SPA Assay (Scintillation Proximity Assay). Type of experiment: biochemical. The method, boiled down: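 E. coli-expressed human enzyme (30-100 nM) with tritiated cortisone 40 nM and NADPH 1 mM in HEPES buffer pH7.4, 2 hours at room temperature. Stopped with protein A SPA beads carrying anti-cortisol antibody and glycyrrhetinic acid; counted after overnight incubation. IC50 from percent inhibition between no-enzyme and no-compound signals.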
Background: In a scintillation proximity assay essentially only radioactivity close to the scintillant gives light.

T1 sequence (P28845 whole entry): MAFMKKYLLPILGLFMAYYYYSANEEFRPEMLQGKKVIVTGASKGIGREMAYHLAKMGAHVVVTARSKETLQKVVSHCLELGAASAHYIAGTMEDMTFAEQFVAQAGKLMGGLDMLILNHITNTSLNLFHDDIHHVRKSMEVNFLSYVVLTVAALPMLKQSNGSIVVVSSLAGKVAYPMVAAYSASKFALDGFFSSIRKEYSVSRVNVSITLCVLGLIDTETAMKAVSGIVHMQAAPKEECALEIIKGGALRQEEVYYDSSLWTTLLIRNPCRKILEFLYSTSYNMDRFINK

As for `CC(C)(Oc1ccc(F)cc1S(C)(=O)=O)C(=O)N[C@H]1C[C@H]2CC[C@@H](C1)N2c1ccc(C(N)=O)cn1` [Example 269, 6-{3-endo-[(2-{[4-fluoro-2-(methylsulfonyl)phenyl]oxy}-2-methylpropanoyl)amino]-8-azabicyclo[3.2.1]oct-8-yl}pyridine-3-carboxamide], the IC50 (in general, the midpoint of a concentration-inhibition curve) was under 200 nM.
Regarding `CC(C)(Oc1cc(Cl)c(F)cc1Cl)C(=O)N[C@H]1C[C@H]2CC[C@@H](C1)N2c1ccc(NS(C)(=O)=O)cn1` [Example 270, 2-[(2,5-dichloro-4-fluorophenyl)oxy]-2-methyl-N-(8-{5-[(methylsulfonyl)amino]pyridin-2-yl}-8-azabicyclo[3.2.1]oct-3-endo-yl)propanamide], the IC50 is under 200 nM.
As for `CC(C)(Oc1ccc2ccccc2c1Cl)C(=O)N[C@H]1C[C@H]2CC[C@@H](C1)N2c1ccc(C(N)=O)cn1` [Example 271, 6-[3-endo-({2-[(1-chloronaphthalen-2-yl)oxy]-2-methylpropanoyl}amino)-8-azabicyclo[3.2.1]oct-8-yl]pyridine-3-carboxamide], the figure is under 200 nM; as for `CC(C)(Oc1ccc(F)c(C(F)(F)F)c1)C(=O)N[C@H]1C[C@H]2CC[C@@H](C1)N2c1ccc(S(C)(=O)=O)cn1` [Example 272, 2-{[4-fluoro-3-(trifluoromethyl)phenyl]oxy}-2-methyl-N-{8-[5-(methylsulfonyl)pyridin-2-yl]-8-azabicyclo[3.2.1]oct-3-endo-yl}propanamide], under 2000 nM; as for `CC(C)(Oc1ncc(Cl)cc1C(F)(F)F)C(=O)N[C@H]1C[C@H]2CC[C@@H](C1)N2c1ccc(C(=O)NCC(F)(F)F)cn1` [Example 273, 6-{3-endo-[(2-{[5-chloro-3-(trifluoromethyl)pyridin-2-yl]oxy}-2-methylpropanoyl)amino]-8-azabicyclo[3.2.1]oct-8-yl}-N-(2,2,2-trifluoroethyl)pyridine-3-carboxamide], under 200 nM.
As for `CC(C)(C(=O)N[C@H]1C[C@H]2CC[C@@H](C1)N2c1ccc(C(N)=O)cn1)S(=O)(=O)c1ccc(Cl)cc1Cl` [Example 274, 6-[3-endo-({2-[(2,4-dichlorophenyl)sulfonyl]-2-methylpropanoyl}amino)-8-azabicyclo[3.2.1]oct-8-yl]pyridine-3-carboxamide], the figure is under 200 nM; as for `CC(C)(Oc1ccc(F)cc1Cl)C(=O)N[C@H]1C[C@H]2CC[C@@H](C1)N2c1ccc(S(C)(=O)=O)nc1` [Example 275, 2-[(2-chloro-4-fluorophenyl)oxy]-2-methyl-N-{8-[6-(methylsulfonyl)pyridin-3-yl]-8-azabicyclo[3.2.1]oct-3-endo-yl}propanamide], under 200 nM.
As for `CC(C)(Oc1ccc(F)cc1Cl)C(=O)N[C@H]1C[C@H]2CC[C@@H](C1)N2c1ccc(-c2noc(C(F)(F)F)n2)cn1` [Example 276, 2-[(2-chloro-4-fluorophenyl)oxy]-2-methyl-N-(8-{5-[5-(trifluoromethyl)-1,2,4-oxadiazol-3-yl]pyridin-2-yl}-8-azabicyclo[3.2.1]oct-3-endo-yl)propanamide], the figure is under 2000 nM; as for `CC(C)(Oc1ccc(Cl)cc1-c1ccc(F)cc1)C(=O)N[C@H]1C[C@H]2CC[C@@H](C1)N2c1ccc(C(N)=O)cn1` [Example 277, 6-[3-endo-({2-[(5-chloro-4′-fluorobiphenyl-2-yl)oxy]-2-methylpropanoyl}amino)-8-azabicyclo[3.2.1]oct-8-yl]pyridine-3-carboxamide], under 200 nM.
Turning to `CC(C)(Oc1ccc(Cl)cc1Cl)C(=O)NC1CC2CCC(C1)N2c1ncc(NC(=O)CC(F)(F)F)cc1Cl` (stereo not drawn) [Example 278, N-{5-chloro-6-[3-endo-({2-[(2,4-dichlorophenyl)oxy]-2-methylpropanoyl}amino)-8-azabicyclo[3.2.1]oct-8-yl]pyridin-3-yl}-3,3,3-trifluoropropanamide], the IC50 is under 2000 nM.
As for `CC(C)(Oc1ccc(Cl)cc1Cl)C(=O)N[C@H]1C[C@H]2CC[C@@H](C1)N2C(=O)c1ccc(C(N)=O)cc1` [Example 279, 4-{[3-endo-({2-[(2,4-dichlorophenyl)oxy]-2-methylpropanoyl}amino)-8-azabicyclo[3.2.1]oct-8-yl]carbonyl}benzamide], the figure is under 2000 nM; as for `CS(=O)(=O)c1ccc(N2[C@@H]3CC[C@H]2C[C@@H](NC(=O)C2(c4ccc(F)c(C(F)(F)F)c4)CC2)C3)nc1` [Example 280, 1-[4-fluoro-3-(trifluoromethyl)phenyl]-N-{8-[5-(methylsulfonyl)pyridin-2-yl]-8-azabicyclo[3.2.1]oct-3-endo-yl}cyclopropanecarboxamide], under 2000 nM; as for `CS(=O)(=O)c1ccc(N2[C@@H]3CC[C@H]2C[C@@H](NC(=O)C2(c4ccc(F)c(F)c4)CC2)C3)nc1` [Example 281, 1-(3,4-difluorophenyl)-N-{8-[5-(methylsulfonyl)pyridin-2-yl]-8-azabicyclo[3.2.1]oct-3-endo-yl}cyclopropanecarboxamide], under 2000 nM.
For the compound `CC(C)(Oc1ccc(-c2ccc(F)cc2)cc1Cl)C(=O)N[C@H]1C[C@H]2CC[C@@H](C1)N2c1ccc(C(N)=O)cn1` [Example 282, 6-[3-endo-({2-[(3-chloro-4′-fluorobiphenyl-4-yl)oxy]-2-methylpropanoyl}amino)-8-azabicyclo[3.2.1]oct-8-yl]pyridine-3-carboxamide], the concentration for half-maximal inhibition (IC50) is under 200 nM.
`CC(C)(Oc1ccc(F)cc1C(F)(F)F)C(=O)N[C@H]1C[C@H]2CC[C@@H](C1)N2c1ccc(NS(C)(=O)=O)cc1` [Example 283, 2-{[4-fluoro-2-(trifluoromethyl)phenyl]oxy}-2-methyl-N-(8-{4-[(methylsulfonyl)amino]phenyl}-8-azabicyclo[3.2.1]oct-3-endo-yl)propanamide]: the IC50 was under 200 nM.
Consider `CC(C)(Oc1ccc(Cl)cc1C(F)(F)F)C(=O)N[C@H]1C[C@H]2CC[C@@H](C1)N2c1ccc(S(C)(=O)=O)cc1` [Example 284, 2-{[4-chloro-2-(trifluoromethyl)phenyl]oxy}-2-methyl-N-{8-[4-(methylsulfonyl)phenyl]-8-azabicyclo[3.2.1]oct-3-endo-yl}propanamide], for which the IC50 was under 200 nM.
In the case of `CC(C)(Oc1ccc(Cl)cc1C1CCCCC1)C(=O)N[C@H]1C[C@H]2CC[C@@H](C1)N2c1ccc(C(N)=O)cn1` [Example 285, 6-[3-endo-({2-[(4-chloro-2-cyclohexylphenyl)oxy]-2-methylpropanoyl}amino)-8-azabicyclo[3.2.1]oct-8-yl]pyridine-3-carboxamide], the IC50 is under 200 nM.
As for `CC(C)(Sc1ccc(Cl)cc1Cl)C(=O)N[C@H]1C[C@H]2CC[C@@H](C1)N2c1ccc(C(N)=O)cn1` [Example 286, 6-[3-endo-({2-[(2,4-dichlorophenyl)thio]-2-methylpropanoyl}amino)-8-azabicyclo[3.2.1]oct-8-yl]pyridine-3-carboxamide], the figure is under 200 nM; as for `CC(C)(Oc1ccc(Cl)cc1Cl)C(=O)N[C@H]1C[C@H]2CC[C@@H](C1)N2c1ccc(C(=O)O)cn1` [Example 287, 6-[3-endo-({2-[(2,4-dichlorophenyl)oxy]-2-methylpropanoyl}amino)-8-azabicyclo[3.2.1]oct-8-yl]pyridine-3-carboxylic acid], under 200 nM; as for `CC(C)(Oc1ccc(F)cc1C(F)(F)F)C(=O)N[C@H]1C[C@H]2CC[C@@H](C1)N2c1ccc(S(C)(=O)=O)nc1` [Example 288, 2-{[4-fluoro-2-(trifluoromethyl)phenyl]oxy}-2-methyl-N-{8-[6-(methylsulfonyl)pyridin-3-yl]-8-azabicyclo[3.2.1]oct-3-endo-yl}propanamide], under 2000 nM.
As for `CS(=O)(=O)c1cccc(C2(C(=O)N[C@H]3C[C@H]4CC[C@@H](C3)N4c3ccc(C(=O)NCC(F)(F)F)cn3)CC2)c1` [Example 289, 6-{3-endo-[({1-[3-(methylsulfonyl)phenyl]cyclo-propyl}carbonyl)amino]-8-azabicyclo[3.2.1]oct-8-yl}-N-(2,2,2-trifluoroethyl)pyridine-3-carboxamide], the figure is under 2000 nM; as for `CC(C)(Oc1ccc(F)c(Cl)c1Cl)C(=O)N[C@H]1C[C@H]2CC[C@@H](C1)N2c1ccc(NS(C)(=O)=O)cn1` [Example 290, 2-[(2,3-dichloro-4-fluorophenyl)oxy]-2-methyl-N-(8-{5-[(methylsulfonyl)amino]pyridin-2-yl}-8-azabicyclo[3.2.1]oct-3-endo-yl)propanamide], under 200 nM; as for `CC(C)(Oc1ccc(Cl)cc1Cl)C(=O)N[C@H]1C[C@H]2CC[C@@H](C1)N2Cc1cccc(C(N)=O)c1` [Example 291, 3-{[3-endo-({2-[(2,4-dichlorophenyl)oxy]-2-methylpropanoyl}amino)-8-azabicyclo[3.2.1]oct-8-yl]methyl}benzamide], under 2000 nM.
Consider `CC(C)(Oc1ccc(F)cc1C(F)(F)F)C(=O)N[C@H]1C[C@H]2CC[C@@H](C1)N2c1ccc(-c2nnn[nH]2)nc1` [Example 292, 2-{[4-fluoro-2-(trifiuoromethyl)phenyl]oxy}-2-methyl-N-{8-[6-(1H-tetrazol-5-yl)pyridin-3-yl]-8-azabicyclo[3.2.1]oct-3-endo-yl}propanamide], for which the IC50 was under 200 nM.
As for `CC(C)(Oc1ccc(Cl)cc1S(C)(=O)=O)C(=O)N[C@H]1C[C@H]2CC[C@@H](C1)N2c1ccc(S(N)(=O)=O)cn1` [Example 293, N-{8-[5-(aminosulfonyl)pyridin-2-yl]-8-azabicyclo[3.2.1]oct-3-endo-yl}-2-{[4-chloro-2-(methylsulfonyl)phenyl]oxy}-2-methylpropanamide], the figure is under 2000 nM.
As for `CC(C)(Oc1ccc(F)cc1F)C(=O)N[C@H]1C[C@H]2CC[C@@H](C1)N2c1ccc(S(N)(=O)=O)cn1` [Example 294, N-{8-[5-(aminosulfonyl)pyridin-2-yl]-8-azabicyclo[3.2.1]oct-3-endo-yl}-2-[(2,4-difluorophenyl)oxy]-2-methylpropanamide], the figure is under 200 nM; as for `CC(C)(Oc1ccc(Cl)cc1Cl)C(=O)N[C@H]1C[C@H]2CC[C@@H](C1)N2Cc1ccc(C(N)=O)cc1` [Example 295, 4-{[3-endo-({2-[(2,4-dichlorophenyl)oxy]-2-methylpropanoyl}amino)-8-azabicyclo[3.2.1]oct-8-yl]methyl}benzamide], under 2000 nM.
